Converted amounts (≈) assume the structure as drawn.
Legend:
[1] = tested on: H9 (acute lymphoblastic leukemia, ALL); test: MTT leukemia cell growth inhibition, 72 h; format: cell-based, human; conditions: Homo sapiens, H9, 72 h; for IC50: read-out: IC50; for IC90: read-out: IC90
Text: (§1) Leukemia cell lines: K562/adr (drug-resistant, chronic myeloid leukemia, CML), NB4 (acute promyelocytic leukemia, AML), Kasumi-1 (acute myeloid leukemia M2 type, AML-M2), Jurkat (acute lymphoblastic leukemia, ALL), all of which are donated by Cancer Research Institute of Zhejiang University, China; and H9 (acute lymphoblastic leukemia, ALL), which is purchased from China Center for Type Culture Collection.
(§2) Obtaining 6000 well-growing leukemia cells and inoculating them into wells of a 96-well cell culture plate. The culture medium is the 1640 cell culture medium containing 10% fetal bovine serum. After adding the homoharringtonine derivatives of different concentrations and mixing uniformly, placing the plate in a carbon dioxide cell incubator (5% CO2) at 37° C. and incubating for 72 hours. Then the viable cell concentration is determined by the MTT method. In this experiment, the cell viability in control group (not treated with any compound) is set as 100%.

[2] = tested on: Jurkat (acute lymphoblastic leukemia, ALL); test: MTT leukemia cell growth inhibition, 72 h; format: cell-based, human; conditions: Homo sapiens; for IC50: read-out: IC50; for IC90: read-out: IC90
Text: as §1, §2

[3] = tested on: K562/adr (drug-resistant, chronic myeloid leukemia, CML); test: MTT leukemia cell growth inhibition, 72 h; format: cell-based, human; conditions: Homo sapiens, K562/Adr; for IC50: read-out: IC50; for IC90: read-out: IC90
Text: as §1, §2

[4] = tested on: Kasumi-1 (acute myeloid leukemia M2 type, AML-M2); test: MTT leukemia cell growth inhibition, 72 h; format: cell-based, human; conditions: Homo sapiens, Kasumi-1, 72 h; for IC50: read-out: IC50; for IC90: read-out: IC90
Text: as §1, §2

[5] = tested on: NB4 (acute promyelocytic leukemia, AML); test: MTT leukemia cell growth inhibition, 72 h; format: cell-based, human; conditions: Homo sapiens, NB4, 72 h; for IC50: read-out: IC50; for IC90: read-out: IC90
Text: as §1, §2

[6] = tested on: RPMI8226 (multiple myeloma); test: MTT multiple myeloma cell growth inhibition, 72 h; format: cell-based, human; conditions: Homo sapiens, RPMI-8226, RPMI8226, 72 h; for IC50: read-out: IC50; for IC90: read-out: IC90
Experimental: Multiple myeloma and lymphoma cell lines: RPMI8226 (multiple myeloma), purchased from Fuxiang Bio-tech Co. Ltd., Shanghai, China.
as §2, with “method.” for “method. In this experiment, the cell viability in control group (not treated with any compound) is set as 100%.”

A549 (human lung cancer) = test: MTT solid tumor cell growth inhibition, 72 h; format: cell-based; conditions: Homo sapiens, A549, 72 h; for IC50: read-out: IC50; for IC90: read-out: IC90
Experimental: (§3) Human solid tumor cell lines: Hep-2 ([…]), A549 (human lung cancer), CaES-17 (esophageal cancer cell), PC-3 (prostate cancer), CNE (nasopharyngeal carcinoma cell), and SK-OV-3 (ovarian cancer cell), all of which are purchased from China Center For Type Culture Collection; RKO (human colon adenocarcinoma cell), MGC 803 (human gastric cancer cell), MG63 (osteosarcoma) and U87 MG (malignant glioma cell), all of which are purchased from Fuxiang Bio-tech Co. Ltd., Shanghai, China; PANC-1 (pancreatic cancer), Huh7 (human liver cancer cell), Becap37 (human breast cancer cell), and Hela (human cervical cancer cell), all of which are donated by Cancer Research Institute of Zhejiang University, China.
(§4) Obtaining 4000 well-growing human solid tumor cells and inoculating them into wells of a 96-well cell culture plate. The culture medium is DMEM High Glucose cell culture medium containing 10% fetal bovine serum. The plate is placed in a carbon dioxide cell incubator (5% CO2) at 37° C. and incubating for 24 hours. After adding the homoharringtonine derivatives of different concentration and mixing uniformly, the plate is placed in a carbon dioxide cell incubator (5% CO2) at 37° C. and incubating for 72 hours. Then the viable cell concentration is determined by the MTT method and the cell viability (%) after drug treatment is calculated. In this experiment, the cell viability of control group (not treated with any compound) is set as 100%.

[7] = tested on: Becap37 (human breast cancer cell); test: MTT solid tumor cell growth inhibition, 72 h; format: cell-based; conditions: Homo sapiens, Becap37, 72 h; for IC50: read-out: IC50; for IC90: read-out: IC90
Experimental: as §3, §4

[8] = tested on: Huh7 (human liver cancer cell); test: MTT solid tumor cell growth inhibition, 72 h; format: cell-based; conditions: Homo sapiens, Huh-7, Huh7, 72 h; for IC50: read-out: IC50; for IC90: read-out: IC90
Experimental: as §3, §4

[9] = tested on: MGC 803 (human gastric cancer cell); test: MTT solid tumor cell growth inhibition, 72 h; format: cell-based; conditions: Homo sapiens, MGC 803, 72 h; for IC50: read-out: IC50; for IC90: read-out: IC90
Experimental: as §3, §4

[10] = tested on: RKO (human colon adenocarcinoma cell); test: MTT solid tumor cell growth inhibition, 72 h; format: cell-based; conditions: Homo sapiens; for IC50: read-out: IC50; for IC90: read-out: IC90
Experimental: as §3, §4

MG63 (osteosarcoma) = test: MTT solid tumor cell growth inhibition, 72 h; format: cell-based, human; conditions: Homo sapiens, MG 63, 72 h; for IC50: read-out: IC50; for IC90: read-out: IC90
Experimental: as §3, §4

[11] = tested on: PANC-1 (pancreatic cancer); test: MTT solid tumor cell growth inhibition, 72 h; format: cell-based, human; conditions: Homo sapiens, PANC-1, 72 h; for IC50: read-out: IC50; for IC90: read-out: IC90
Experimental: as §3, §4

[12] = tested on: U87 MG (malignant glioma cell); test: MTT solid tumor cell growth inhibition, 72 h; format: cell-based, human; conditions: Homo sapiens, U-87 MG
Experimental: as §3, §4

Structure (SMILES)	IC50 [1] [mg/L]	IC90 [1] [mg/L]	IC50 [2] [mg/L]	IC90 [2] [mg/L]	IC50 [3] [mg/L]	IC90 [3] [mg/L]	IC50 [4] [mg/L]	IC90 [4] [mg/L]	IC50 [5] [mg/L]	IC90 [5] [mg/L]	IC50 [6] [mg/L]	IC90 [6] [mg/L]	IC50 (A549 (human lung cancer)) [mg/L]	IC90 (A549 (human lung cancer)) [mg/L]	IC50 [7] [mg/L]	IC90 [7] [mg/L]	IC50 [8] [mg/L]	IC90 [8] [mg/L]	IC50 [10] [mg/L]	IC90 [10] [mg/L]	further results
COC1=C[C@]23CCCN2CCc2cc4c(cc2[C@@H]3[C@@H]1OC(=O)[C@@](O)(CCCC(C)(C)O)CC(=O)N1CCC(O)CC1)OCO4 [BS-HH-021]	> 16	> 16	13.4 (≈ 21.8 µM)	> 16	> 16	> 16	14.6 (≈ 23.7 µM)	> 16	8 (≈ 13 µM)	16 (≈ 26 µM)	16 (≈ 26 µM)	> 16	> 16	> 16	> 16	> 16	> 16	> 16	8.51 (≈ 13.8 µM)	> 16	IC50 [9]: > 16 mg/L; IC90 [9]: > 16 mg/L; IC50 (MG63 (osteosarcoma)): > 16 mg/L; IC90 (MG63 (osteosarcoma)): > 16 mg/L; IC50 [11]: > 16 mg/L; IC90 [11]: > 16 mg/L
COC1=C[C@]23CCCN2CCc2cc4c(cc2[C@@H]3[C@@H]1OC(=O)[C@@](O)(CCCC(C)(C)O)CC(=O)N1CCSCC1)OCO4 [BS-HH-014]	8.25 (≈ 13.4 µM)	> 16	2 (≈ 3.24 µM)	> 16	> 16	> 16	1.33 (≈ 2.16 µM)	8.61 (≈ 14 µM)	1.29 (≈ 2.09 µM)	3.7 (≈ 6 µM)	2.43 (≈ 3.94 µM)	16 (≈ 25.9 µM)	9.79 (≈ 15.9 µM)	> 16	6.89 (≈ 11.2 µM)	> 16	4 (≈ 6.49 µM)	> 16	1.25 (≈ 2.03 µM)	5.36 (≈ 8.69 µM)	IC50 [9]: 2.92 mg/L (≈ 4.73 µM); IC90 [9]: 15.5 mg/L (≈ 25.1 µM); IC50 (MG63 (osteosarcoma)): 6.24 mg/L (≈ 10.1 µM); IC90 (MG63 (osteosarcoma)): > 16 mg/L; IC50 [11]: 8 mg/L (≈ 13 µM); IC90 [11]: > 16 mg/L
COC1=C[C@]23CCCN2CCc2cc4c(cc2[C@@H]3[C@@H]1OC(=O)[C@@](O)(CCCC(C)(C)O)CC(=O)NCc1cccs1)OCO4 [BS-HH-055]	4 (≈ 6.38 µM)	10.6 (≈ 17 µM)	1.58 (≈ 2.52 µM)	8 (≈ 12.8 µM)	6.24 (≈ 9.96 µM)	16 (≈ 25.5 µM)	1.3 (≈ 2.07 µM)	6.68 (≈ 10.7 µM)	2.38 (≈ 3.8 µM)	7.61 (≈ 12.1 µM)	2.1 (≈ 3.35 µM)	16 (≈ 25.5 µM)	11.2 (≈ 17.9 µM)	> 16	5.9 (≈ 9.41 µM)	> 16	4.83 (≈ 7.71 µM)	> 16	2.75 (≈ 4.39 µM)	6.97 (≈ 11.1 µM)	IC50 [9]: 6.06 mg/L (≈ 9.67 µM); IC90 [9]: 19 mg/L (≈ 30.3 µM); IC50 (MG63 (osteosarcoma)): 3.83 mg/L (≈ 6.11 µM); IC90 (MG63 (osteosarcoma)): 16 mg/L (≈ 25.5 µM); IC50 [11]: 8 mg/L (≈ 12.8 µM); IC90 [11]: > 16 mg/L; IC50 ([12]; read-out: IC50): 6.54 mg/L (≈ 10.4 µM); IC90 ([12]; read-out: IC90): > 16 mg/L
COC1=C[C@]23CCCN2CCc2cc4c(cc2[C@@H]3[C@@H]1OC(=O)[C@@](O)(CCCC(C)(C)O)CC(=O)N1CCOCC1)OCO4 [BS-HH-011]	> 16	> 16	6.7 (≈ 11.2 µM)	> 16	> 16	> 16	8.28 (≈ 13.8 µM)	> 16	3.22 (≈ 5.36 µM)	9.54 (≈ 15.9 µM)	6.71 (≈ 11.2 µM)	> 16	> 16	> 16	11.3 (≈ 18.8 µM)	> 16	16 (≈ 26.6 µM)	> 16	4 (≈ 6.66 µM)	> 16	IC50 (MG63 (osteosarcoma)): 6.33 mg/L (≈ 10.5 µM); IC90 (MG63 (osteosarcoma)): > 16 mg/L; IC50 [11]: > 16 mg/L; IC90 [11]: > 16 mg/L
